In US20030229007A1, “Form of human renin and its use as a target in treatments for cardiac ischemia and arrhythmia” (priority 2002, published 2003):
Counter-ions that a name gives are not always drawn. Square brackets hold non-standard residues; d marks the D form. Peptide text beside a SMILES is read from it. * marks the point of attachment. Sta = CC(C)C[C@H](N)[C@@H](O)CC(=O)O; Isovaleryl = CC(C)CC(=O)*

How the values were obtained:
[1] = tested on: human cardiac synaptosomes (sympathetic nerve endings); assay: Ischemic NE release from synaptosomes isolated from human right atrium; assay type: cell-based; details: 70 min ischemia
Description: (§1) Preparation of cardiac synaptosomes. Atrial specimens were freed from fat and connective tissue and minced in ice-cold 0.32 M sucrose containing 1 mM EGTA, pH 7.4, and 1 mM pargyline, to prevent enzymatic destruction of synaptosomal NE. Synaptosomes were isolated as previously described (Imamura et al., Circ. Res. 1995, 77:206-210). Briefly, minced tissue was digested with 120 mg collagenase (Type II, Worthington Biochemicals, Freehold, N.J.) per gm wet heart weight for 1 hr at 37° C. After low speed centrifugation (10 min at 120 g), the resulting pellet was suspended in 10 vol of 0.32 M sucrose and homogenized with a Teflon/glass homogenizer. The homogenate was spun at 650 g for 10 min and the pellet rehomogenized and respun. The pellet containing cellular debris was discarded, and the supernatants from the last two spins were combined and equally subdivided into 4 to 8 tubes and recentrifuged for 20 min at 20,000 g at 4° C. This pellet, which contained cardiac synaptosomes, was resuspended either in HEPES-buffered saline (HBS; 500 μl, normoxic conditions) or in glucose-free HBS which contained the reducing agent sodium dithionite (500 μl, ischemic conditions), and incubated in the absence or presence of angiotensinogen (for 1 hour) or other pharmacological agents for 20 min in a water bath at 37° C. prior to ischemia (see below). HBS contained 50 mM HEPES, pH 7.4, 144 mM NaCl, 5 mM KCl, 1.2 mM CaCl2, 1.2 mM MgCl2, 10 mM glucose. Each suspension functioned as an independent sample and was used only once. In every experiment, one sample was untreated (control, basal NE release).
Induction of ischemia. Ischemia was induced by incubating either atrial fragments or synaptosomes for 70 min in glucose-free KHS (atrial tissue) or HBS (synaptosomes) bubbled with 95% N2 and 5% CO2, containing the reducing agent sodium dithionite (3 mM; PO2 ˜0 mm Hg, pH ˜7.3; ischemic NE release) (Hatta et al. J. Pharmacol Exp. Ther. 1997, 283:494-500). Matched control fragments and synaptosomes were incubated for an equivalent length of time with oxygenated KHS and HBS, respectively (normoxic NE release). When drugs were used, they were continued throughout the entire normoxic and ischemic periods.
Norepinephrine assay. Incubating media were assayed for NE by high pressure liquid chromatography with electrochemical detection (Hatta et al. J. Pharmacol Exp. Ther. 1997, 283:494-500). Perchloric acid and EDTA were added to samples to achieve final concentrations of 0.01 N and 0.025%, respectively. The NE present in the effluent was adsorbed on acid-washed alumina adjusted at pH 8.6 with Tris-2% EDTA buffer, and then extracted into 150 μl of 0.1 N perchloric acid. These final sample aliquots were injected onto a 3 μm ODS reverse-phase column (3.2×100 mm, Bioanalytical System, West Lafayette, Ind.) with an applied potential of 0.65 V. The mobile phase consisted of monochloroacetic acid (75 mM), sodium EDTA (0.5 mM), sodium octylsulfate (0.5 mM) and acetonitrile (1.5%) at pH 3.0. The flow rate was 1.0 ml/min. No NE breakdown occurred during the 70-min ischemic period. Dihydroxybenzylamine was added to each sample as an internal standard prior to alumina extraction and used for calculation of the recovery during the extraction procedure. This recovery was 77% or better. The detection limit was approximately 0.2 pmol.

[2] = tested on: human cardiac synaptosomes (sympathetic nerve endings); assay: Ischemic NE release from human cardiac synaptosomes incubated with angiotensinogen; assay type: cell-based; details: for effect on angiotensinogen-induced increase in ischemic NE release: angiotensinogen 400 nM
Description: as §1
Induction of ischemia. Ischemia was induced by incubating either atrial fragments or synaptosomes for 70 min in glucose-free KHS (atrial tissue) or HBS (synaptosomes) bubbled with 95% N2 and 5% CO2, containing the reducing agent sodium dithionite (3 mM; PO2 ˜0 mm Hg, pH ˜7.3; ischemic NE release) (Hatta et al. J. Pharmacol Exp. Ther. 1997, 283:494-500). […]

[3] = tested on: human right atrial tissue; assay: NE release from human right atrium incubated in ischemic conditions; assay type: cell-based; details: 70 min ischemia
Text: Source of human cardiac tissue. Specimens of right atrium (i.e., surgical waste tissue) were obtained from 34 patients undergoing cardiopulmonary bypass [29 males and 5 females, age 64.9±1.6 years; coronary artery bypass grafting (CABG) 30, valve replacement 4], following a protocol approved by the Institutional Review Board. Eight of the 30 CABG patients were chronically treated with β-adrenoceptor blocking agents. […] All patients chronically treated with ACE inhibitors were excluded from the study. At the time of surgery, a piece of atrial appendage measuring ˜1 cm^3 was removed from the atriotomy site.
Incubation of atrial tissue. Atrial specimens were immediately transported to the laboratory in ice-cold oxygenated Krebs-Henseleit solution (KHS) of the following composition (mM): NaCl 118.2, KCl 4.83, CaCl2 2.5, MgSO4 2.37, KH2PO4 1.0, NaHCO3 25, and glucose 11.1. After removal of fat and connective tissue, specimens were divided into several fragments (each weighing 24.5±1.1 mg, wet weight, measured at the end of incubation). Each fragment was incubated for 15 min at 37° C. in 2 ml of KHS gassed with 95% O2 and 5% CO2 (Po2 ˜550 mm Hg, pH ˜7.4) containing the monoamine oxidase inhibitor pargyline (1 mM). Following the 15-min stabilization period, fragments were incubated for an additional 20 min in oxygenated KHS in the absence or presence of pharmacological agents. […]

[4] = tested on: human right atrial tissue; details: as previously reported (Hatta et al. 1997); cited from earlier work

Molecule: CC(C)C[C@H](O)[C@H](O)[C@H](CC1CCCCC1)NC(=O)[C@@H](CC(=O)N(CC(=O)N(C)CCc1ccccn1)CC1CCCCC1)Cc1csc(N)n1 [BILA 2157BS]
- suppression of the enhancement in NE release elicited by ischemia ([1]; 100 nM): ~70%
- effect on angiotensinogen-induced increase in ischemic NE release ([2]; 100 nM): prevented
- decrease in NE release ([3]; 30 nM): ~60%

Molecule: CNCCCN1c2ccccc2CCc2ccccc21 [DMI, desipramine hydrochloride]
- inhibition at 0.3 µM ([1]; Homo sapiens, 70 min, 300 nM): ~50%
- effect on ischemic NE release from atrial tissue [4]: inhibited

Molecule: CCN(c1nc(N)c(C(=O)N=C(N)N)nc1Cl)C(C)C [EIPA, 5-(N-ethyl-N-isopropyl)-amiloride]
- inhibition of ischemic NE release ([1]; 30 μM): ~50%

Molecule: C[C@H](N[C@@H](CCc1ccccc1)C(=O)O)C(=O)N1CCC[C@H]1C(=O)O [enalaprilat, Enalaprilat]
- reduction of the increase in NE release caused by ischemia ([1]; 3 μM): ~80%
- effect on angiotensinogen-induced increase in ischemic NE release ([2]; 3 μM): prevented

Molecule: CC(C)CC(=O)N[C@H](C(=O)N[C@H](C(=O)N[C@@H](CC(C)C)[C@@H](O)CC(=O)N[C@@H](C)C(=O)N[C@@H](CC(C)C)[C@@H](O)CC(=O)O)C(C)C)C(C)C [pepstatin-A] (Isovaleryl-VV[Sta]A[Sta]-OH)
- suppression of the enhancement in NE release elicited by ischemia ([1]; 30 μM): ~70%
- decrease in NE release ([3]; 30 μM): ~70%

B1: angiotensinogen: Human plasma angiotensinogen, renin substrate, purchased from Sigma-Aldrich (protein, UniProt P01019 25-476, looked up)
Angiotensinogen: DRVYIHPFHLVIHNESTCEQLAKANAGKPKDPTFIPAPIQAKTSPVDEKALQDQLVLVAAKLDTEDKLRAAMVGMLANFLGFRIYGMHSELWGVVHGATVLSPTAVFGTLASLYLGALDHTADRLQAILGVPWKDKNCTSRLDAHKVLSALQAVQGLLVAQGRADSQAQLLLSTVVGVFTAPGLHLKQPFVQGLALYTPVVLPRSLDFTELDVAAEKIDRFMQAVTGWKTGCSLMGASVDSTLAFNTYVHFQGKMKGFSLLAEPQEFWVDNSTSVSVPMLSGMGTFQHWSDIQDNFSVTQVPFTESACLLLIQPHYASDLDKVEGLTFQQNSLNWMKKLSPRTIHLTMPQLVLQGSYDLQDLLAQAELPAILHTELNLQKLSNDRIRVGEVLNSIFFELEADEREPTESTQQLNKPEVLEVTLNRPFLFAVYDQSATALHFLGRVANPLSTA
- increase in ischemic NE release ([2]; 400 nM angiotensinogen, 70 min ischemia): ~70%
